Measurements published in patent US20230148299A1, “FEM1B PROTEIN BINDING AGENTS AND USES THEREOF” (The Regents Of The University Of California, priority 2020, published 2023).

Tests used:
FEM1B [1] = target: T1, FEM1B (Homo sapiens, UniProt Q9UK73); experiment: Gel-based ABPP of EN106 against FEM1B and site identification; format: binding; conditions: C186
From the text: FIGS. 12A-12B. […] FIG. 12A: Gel-based ABPP of EN106 against FEM1B. FIG. 12B: EN106 targets C186 in FEM1B. C186 is critical for substrate recognition of FEM1B. Sequence shown is: […] (residues 183-205 of SEQ ID NO:1).

FEM1B [2] = target: T1, FEM1B; experiment: EN106-alkyne pulldown and isoTOP-ABPP in HEK293T cells; format: cell-based; set-up: endogenous in cells; host or cells: HEK293T; conditions: EN106 10 μM 2 h (isoTOP-ABPP), EN106-alkyne pulldown
Method: FIGS. 14A-14C. […] FIG. 14A: Structures of EN106 and EN106-alkyne (NJH-2-030). FIG. 14B: EN106-alkyne pulldown. See Example 4 for experimental procedure. FIG. 14C: HEK293T cells were treated with vehicle or EN106 (10 μM) for 2 h and cell lysates were subjected to the isoTOP-ABPP protocol described in Example 4.
EN106-alkyne pulldown protocol. HEK293T cells were treated with DMSO or 10 μM NJH-2-030 in situ for 8 h. Cells were harvested, lysed via sonication and normalized to 2.0 mg/mL. Following normalization, 100 μL of each lysate sample was removed for Western blot analysis of input, and 500 μL of each lysate sample was incubated for 1 h at room temperature with 10 μL of 5 mM biotin picolyl azide (in water) (Sigma Aldrich 900912), 10 μL of 50 mM TCEP (in water), 30 μL of TBTA ligand (0.9 mg/mL in DMSO:t-butanol=1:4), and 10 μL of 50 mM Copper (II) Sulfate (12.5 mg/mL in water). Proteins were precipitated, washed 3×1 mL with cold MeOH, resolubilized in 1 mL of 1.2% SDS/PBS (w/v), heated for 5 min at 90° C., and centrifuged to remove any insoluble components. […] Proteins in each sample were then analyzed by Western blotting to look for enriched FEM1B versus non-enriched GAPDH.
IsoTOP-ABPP Chemoproteomic Experiment. […] Cells were lysed by probe sonication in PBS and protein concentrations were measured by BCA assay. […]

[3] = test system: GFP-Fnip1 degron reporter; experiment: GFP-Fnip1 degron reporter (GFP/mCherry) by flow cytometry; format: cell-based; conditions: HEK293T cells, reporter +/- Fem1b, 20 μM, 8 hours
Method: HEK293T cells were transfected 24 hours before flow cytometery with the GFP-Fnip1 degron reporter+/−Fem1b.
FNIP1 variants were expressed in cells and tested for interaction with ^FLAGFEM1B by co-immunoprecipitation, and for degradation by measuring their abundance in the presence or absence of FEM1B. […] FEM1B variants were immunoprecipitated and bound FNIP1 and FLCN were detected by Western blotting. […] The FNIP1 degron was fused to GFP (GFP^degron) and expressed from the same plasmid as an IRES controlled mCherry. mCherry provides normalization for GFP fluorescence in each cell. […] Levels of GFP^degron and mCherry were determined by FACS, and their ratio is depicted for presence or absence of FEM1B variants. […] Cells were transfected with the GFP^degron/mCherry reporter, and analyzed for GFP and mCherry fluorescence by FACS. […] A TAMRA-labeled FNIP1 degron peptide was incubated with purified FEMIB or the control CRL1 adaptor FBXL17, and binding was measured by fluorescence polarization of the peptide. […] The TAMRA-labeled FNIP1 degron was incubated with recombinant CUL2^FEM1B (unmodified or NEDD8-modified), E1, ubiquitin, ATP and the E2 enzymes UBE2D3 and/or UBE2R1. Ubiquitylation was monitored by gel electrophoresis and fluorescence detection.

FEM1B-FNIP1 = FEM1B-FNIP1 (Homo sapiens, UniProt Q9UK73); experiment: Fluorescence polarization between FEM1B and FNIP1 (covalent ligand screen); format: binding; conditions: DMSO = 100, FP between FEM1B and FNIP1
From the text: FIG. 11. Fluorescence polarization screen to identify functional FEM1B-FNIP1-targeting covalent ligands.
FEM1B binds a conserved central degron in FNIP1. Deletion analysis of FNIP1 identifies a stretch of 20 amino acids that is required for its binding to FEM1B and its proteasomal degradation. FNIP1 variants were expressed in cells and tested for interaction with ^FLAGFEM1B by co-immunoprecipitation, and for degradation by measuring their abundance in the presence or absence of FEM1B. The FNIP1 degron is required for FEM1B binding and proteasomal degradation. […] FEM1B variants were immunoprecipitated and bound FNIP1 and FLCN were detected by Western blotting. The FNIP1 degron is sufficient to mediate FEM1B-dependent degradation. The FNIP1 degron was fused to GFP (GFP^degron) and expressed from the same plasmid as an IRES controlled mCherry. mCherry provides normalization for GFP fluorescence in each cell. […] Levels of GFP^degron and mCherry were determined by FACS, and their ratio is depicted for presence or absence of FEM1B variants. Deletion of FEM1B prevents FNIP1-degron dependent degradation. The FEM1B locus was deleted in 293T cells using CRISPR/Cas9. Cells were transfected with the GFP^degron/mCherry reporter, and analyzed for GFP and mCherry fluorescence by FACS. FEM1B directly binds the FNIP1 degron in vitro. A TAMRA-labeled FNIP1 degron peptide was incubated with purified FEMIB or the control CRL1 adaptor FBXL17, and binding was measured by fluorescence polarization of the peptide. The FNIP1 degron is sufficient to mediate CUL2^FEM1B-dependent ubiquitylation. The TAMRA-labeled FNIP1 degron was incubated with recombinant CUL2^FEM1B (unmodified or NEDD8-modified), E1, ubiquitin, ATP and the E2 enzymes UBE2D3 and/or UBE2R1. Ubiquitylation was monitored by gel electrophoresis and fluorescence detection.

T1 sequence (Q9UK73 whole entry, the tested form may be a part): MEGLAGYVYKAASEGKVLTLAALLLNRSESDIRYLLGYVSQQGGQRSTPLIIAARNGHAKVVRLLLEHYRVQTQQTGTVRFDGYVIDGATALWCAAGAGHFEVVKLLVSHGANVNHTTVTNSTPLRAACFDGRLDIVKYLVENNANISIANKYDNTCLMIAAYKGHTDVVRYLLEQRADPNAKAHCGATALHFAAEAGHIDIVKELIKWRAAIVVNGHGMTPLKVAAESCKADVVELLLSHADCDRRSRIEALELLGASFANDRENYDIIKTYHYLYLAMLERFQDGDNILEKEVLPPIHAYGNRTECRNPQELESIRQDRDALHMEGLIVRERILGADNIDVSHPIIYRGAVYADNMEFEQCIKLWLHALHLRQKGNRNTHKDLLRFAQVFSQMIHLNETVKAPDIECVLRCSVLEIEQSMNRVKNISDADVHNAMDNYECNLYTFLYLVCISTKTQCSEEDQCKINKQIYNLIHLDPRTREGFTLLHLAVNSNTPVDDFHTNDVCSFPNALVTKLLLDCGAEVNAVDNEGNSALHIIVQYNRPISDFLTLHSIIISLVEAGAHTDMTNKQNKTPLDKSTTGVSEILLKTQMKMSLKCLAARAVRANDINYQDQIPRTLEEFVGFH
FEM1B-FNIP1, sequence (Q9UK73 whole entry): as the sequence (Q9UK73 whole entry, the tested form may be a part) above

N#CCCN(C(=O)CCl)c1ccc2c(c1)OCCO2 [EN106, 2-chloro-N-(2-cyanoethyl)-N-(2,3-dihydrobenzo[b][1,4]dioxin-6-yl)acetamide]
covalent targeting of FEM1B cysteine (FEM1B [1]): covalently targets C186 on FEM1B | FEM1B engagement in cells (FEM1B [2]): engages FEM1B in cells | inhibition of FEM1B in cells / FNIP1 stabilization [3]: inhibits endogenous and overexpressed FEM1B in cells and stabilizes FNIP1 | remaining activity at 5 µM (FEM1B-FNIP1; compound at 5 μM, read-out: Normalized FP 5 μM): 50.6% | activity at 50 µM (FEM1B-FNIP1; compound at 50 μM, read-out: Normalized FP 50 μM): 4.2%
